Assay results reported in patent US20260355212A1 (priority 2022, published 2026).
Like-named read-outs stand apart in the source and are kept apart here.

What was measured:
SARS-CoV-2 Mpro = SARS-CoV-2 Mpro (Severe acute respiratory syndrome coronavirus 2, UniProt P0DTD1); experiment: SARS-CoV-2 Mpro enzymatic inhibition assay (fluorescence); assay type: biochemical
Protocol: (§1) The hCoV Mpro are cloned, expressed in E. coli and purified by WuXi AppTec Co., Ltd. The substrate are synthesized by Genscript Biotech.
Compounds are 3 fold serially diluted for 10 doses and added to an assay plate (384w format) using ECHO, in duplicate wells. The test concentration of test compounds is defined by sponsor.
(§2) 25 μL of Mpro proteins are added to the assay plates containing compounds, respectively, using Multidrop. The compounds and Mpro proteins are pre-incubated at room temperature for 30 min. Then 5 µL of Mpro substrates are added to the related assay plates, respectively.
(§3) After 60 min incubation at 30° C., the fluorescence signal (RFU) is detected using a microplate reader M2e (SpectraMax) at Ex/Em=340 nm/490 nm.
(§4) The inhibition activity is calculated using the formula below, IC50 values will be calculated using the Inhibition % data.
(§5) IC50 values of compounds are calculated with the GraphPad Prism software using the nonlinear regression model of log(inhibitor) vs. response—Variable slope (four parameters).

HCoV-HKU1 Mpro = HCoV-HKU1 Mpro (Human coronavirus HKU1, UniProt P0C6X2); experiment: HCoV-HKU1 Mpro enzymatic inhibition assay (fluorescence); assay type: biochemical
Protocol: as §1
(§6) Compounds are 3 fold serially diluted for 10 doses and added to an assay plate (384w format) using ECHO, in duplicate wells. The test concentration of test compounds is defined by sponsor. […] For no inhibition control (ZPE, zero percent effect), DMSO is added.
as §2, with “respectively. Each activity testing point has a relevant background control to normalize the fluorescence interference of compound.” for “respectively.”
as §3, §4
(§7) Inhibition %=[(CPD−BGCPD)−(ZPE−BGZPE)/(HPE−BGHPE)−(ZPE−BGZPE)]×[…] • CPD: Signal of test compounds wells, containing compound+enzyme+substrate. • ZPE: Average of signals of zero percent effective control wells, containing enzyme+substrate, no compound. • HPE: Average of signals of hundred percent effect control wells, containing GC376+enzyme+substrate. • BG: Compound background control wells, containing compound+substrate, no enzyme
as §5

HCoV-OC43 Mpro = HCoV-OC43 Mpro (Human coronavirus OC43, UniProt P0C6X6); experiment: HCoV-OC43 Mpro enzymatic inhibition assay (fluorescence); assay type: biochemical
Protocol: as §1, §6
as §2, with “respectively. Each activity testing point has a relevant background control to normalize the fluorescence interference of compound.” for “respectively.”
as §3, §4, §7, §5

HCoV-NL63 Mpro = HCoV-NL63 Mpro (Human coronavirus NL63, UniProt P0C6X5); experiment: HCoV-NL63 Mpro enzymatic inhibition assay (fluorescence); assay type: biochemical
Protocol: as §1, §6
as §2, with “respectively. Each activity testing point has a relevant background control to normalize the fluorescence interference of compound.” for “respectively.”
as §3, §4, §7, §5

SARS-CoV-1 Mpro = SARS-CoV-1 Mpro (Severe acute respiratory syndrome coronavirus, UniProt P0C6X7); experiment: biochemical
MERS Mpro = MERS Mpro (Middle East respiratory syndrome-related coronavirus, UniProt K9N7C7); experiment: biochemical; set-up: species or system MERS-CoV
HCoV-229E Mpro = HCoV-229E Mpro (Human coronavirus 229E, UniProt P0C6X1); experiment: HCoV-229E Mpro enzymatic inhibition assay (fluorescence); assay type: biochemical
Protocol: as §1, §6
as §2, with “respectively. Each activity testing point has a relevant background control to normalize the fluorescence interference of compound.” for “respectively.”
as §3, §4, §7, §5

[1] = mean, 25 nM protein, 25 μM substrate, 30 min pre-incubation, 60 min at 30° C., read-out: Mpro_SARS-CoV-2 mean IC50

HCoV-NL63 Mpro, sequence (P0C6X5 2940-3242 limits assumed): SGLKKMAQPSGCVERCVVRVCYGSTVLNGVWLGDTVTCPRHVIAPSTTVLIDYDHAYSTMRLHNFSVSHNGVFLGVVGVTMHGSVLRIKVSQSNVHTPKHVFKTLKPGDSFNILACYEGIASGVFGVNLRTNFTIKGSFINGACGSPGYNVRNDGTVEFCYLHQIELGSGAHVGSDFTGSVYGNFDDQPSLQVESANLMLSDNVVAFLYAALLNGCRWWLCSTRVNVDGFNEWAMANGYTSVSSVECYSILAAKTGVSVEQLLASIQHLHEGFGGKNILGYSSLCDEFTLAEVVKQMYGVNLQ
MERS Mpro, sequence (K9N7C7 3248-3553 limits assumed): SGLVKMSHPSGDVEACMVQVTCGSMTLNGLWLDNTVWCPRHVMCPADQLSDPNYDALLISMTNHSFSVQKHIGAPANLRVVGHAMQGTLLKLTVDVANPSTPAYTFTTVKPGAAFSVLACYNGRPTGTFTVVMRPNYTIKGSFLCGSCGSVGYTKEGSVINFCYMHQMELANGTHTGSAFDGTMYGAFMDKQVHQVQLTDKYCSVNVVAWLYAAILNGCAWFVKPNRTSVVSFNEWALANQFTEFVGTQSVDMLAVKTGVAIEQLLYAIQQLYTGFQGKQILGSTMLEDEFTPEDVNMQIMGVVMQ
HCoV-229E Mpro, sequence (P0C6X1 2966-3267 limits assumed): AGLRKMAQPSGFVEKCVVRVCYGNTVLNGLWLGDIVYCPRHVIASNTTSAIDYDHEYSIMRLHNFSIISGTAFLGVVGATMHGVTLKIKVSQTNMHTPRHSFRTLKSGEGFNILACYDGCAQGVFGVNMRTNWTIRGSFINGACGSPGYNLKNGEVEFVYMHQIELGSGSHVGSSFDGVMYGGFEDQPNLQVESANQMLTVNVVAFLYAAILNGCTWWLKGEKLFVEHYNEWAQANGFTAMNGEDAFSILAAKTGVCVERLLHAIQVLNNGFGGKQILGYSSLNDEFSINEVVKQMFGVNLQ
HCoV-HKU1 Mpro, sequence (P0C6X2 3335-3637 limits assumed): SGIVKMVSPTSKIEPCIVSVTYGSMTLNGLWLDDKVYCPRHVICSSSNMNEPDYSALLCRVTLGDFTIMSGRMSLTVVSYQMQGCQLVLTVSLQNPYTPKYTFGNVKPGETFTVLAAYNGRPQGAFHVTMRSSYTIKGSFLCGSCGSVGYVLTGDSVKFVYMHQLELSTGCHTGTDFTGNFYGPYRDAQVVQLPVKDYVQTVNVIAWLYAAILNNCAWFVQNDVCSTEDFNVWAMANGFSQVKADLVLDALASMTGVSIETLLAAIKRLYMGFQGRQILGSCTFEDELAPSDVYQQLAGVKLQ
HCoV-OC43 Mpro, sequence (P0C6X6 3247-3549 limits assumed): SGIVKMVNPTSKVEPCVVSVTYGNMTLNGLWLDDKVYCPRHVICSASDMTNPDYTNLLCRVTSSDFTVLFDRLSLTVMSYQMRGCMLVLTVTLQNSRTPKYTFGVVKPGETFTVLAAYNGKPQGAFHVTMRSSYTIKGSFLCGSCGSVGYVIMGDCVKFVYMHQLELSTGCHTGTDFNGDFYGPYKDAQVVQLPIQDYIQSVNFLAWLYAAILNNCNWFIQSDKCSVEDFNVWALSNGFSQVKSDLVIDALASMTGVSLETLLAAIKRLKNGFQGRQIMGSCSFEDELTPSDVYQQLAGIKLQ

| Compound | IC50 (SARS-CoV-2 Mpro; [1]) [nM] | IC50 (HCoV-HKU1 Mpro) [nM] | IC50 (HCoV-OC43 Mpro) [nM] | IC50 (HCoV-NL63 Mpro) [nM] | IC50 (SARS-CoV-1 Mpro) [nM] | IC50 (MERS Mpro) [nM] | IC50 (HCoV-229E Mpro) [nM] | IC50 (SARS-CoV-2 Mpro) [nM] | IC50 (HCoV-HKU1 Mpro; read-out: Mpro_HKU1 mean IC50, mean, 12.5 nM protein, 12.5 μM substrate, 30 min pre-incubation, 60 min at 30° C.) [nM] | IC50 (HCoV-OC43 Mpro; read-out: Mpro_OC43 mean IC50, mean, 25 nM protein, 12.5 μM substrate, 30 min pre-incubation, 60 min at 30° C.) [nM] | IC50 (HCoV-NL63 Mpro; read-out: Mpro_NL63 mean IC50, mean, 50 nM protein, 12.5 μM substrate, 30 min pre-incubation, 60 min at 30° C.) [nM] | IC50 (SARS-CoV-1 Mpro; read-out: Mpro_SARS-CoV-1 mean IC50, mean, 25 nM protein (SARS_Mpro), 25 μM substrate, 30 min pre-incubation, 60 min at 30° C.) [nM] | IC50 (MERS Mpro; read-out: Mpro_MERS mean IC50, mean, 100 nM protein, 25 μM substrate, 30 min pre-incubation, 60 min at 30° C.) [nM] | IC50 (HCoV-229E Mpro; read-out: Mpro_229E mean IC50, mean, 50 nM protein, 12.5 μM substrate, 30 min pre-incubation, 60 min at 30° C.) [nM] |
| --- | --- | --- | --- | --- | --- | --- | --- | --- | --- | --- | --- | --- | --- | --- |
| CC(C)c1ccc(Cl)c2[nH]c(C(=O)N3C[C@H]4[C@@H]([C@H]3C(=O)N[C@H](C=O)C[C@@H]3CCNC3=O)C4(C)C)cc12 [Compound 88, (1R,2S,5S)-3-(7-Chloro-4-isopropyl-1H-indole-2-carbonyl)-6,6-dimethyl-N—((S)-1-oxo-3-((S)-2-oxopyrrolidin-3-yl)propan-2-yl)-3-azabicyclo[3.1.0]hexane-2-carboxamide] | 40.3 | 21.2 | 44.9 | 68.5 | 46.2 | 239 | 41.5 |  |  |  |  |  |  |  |
| CC1(C)[C@@H]2[C@@H](C(=O)N[C@H](C=O)C[C@@H]3CCCNC3=O)N(C(=O)c3cc4ccccc4[nH]3)C[C@@H]21 [Compound 11, (1R,2S,5S)-3-(1H-indole-2-carbonyl)-6,6-dimethyl-N—((S)-1-oxo-3-((S)-2-oxopiperidin-3-yl)propan-2-yl)-3-azabicyclo[3.1.0]hexane-2-carboxamide] |  | 40 | 34.1 | 50.6 | 38.4 | 230 | 37.2 | 13.2 |  |  |  |  |  |  |
| CC1(C)[C@@H]2[C@@H](C(=O)N[C@H](C=O)C[C@@H]3CCNC3=O)N(C(=O)Cc3ccc4c(c3)CCCC4)C[C@@H]21 [Compound 40, (1R,2S,5S)-6,6-Dimethyl-N—((S)-1-oxo-3-((S)-2-oxopyrrolidin-3-yl)propan-2-yl)-3-(2-(5,6,7,8-tetrahydronaphthalen-2-yl)acetyl)-3-azabicyclo[3.1.0]hexane-2-carboxamide] |  | 20.4 | 45.7 | 88.6 | 35.3 | 237 | 40.1 | 21.7 |  |  |  |  |  |  |
| CC1(C)[C@@H]2[C@@H](C(=O)N[C@H](C=O)C[C@@H]3CCNC3=O)N(C(=O)CC3CCC(F)(F)CC3)C[C@@H]21 [Compound 16, (1R,2S,5S)-3-(2-(4,4-difluorocyclohexyl)acetyl)-6,6-dimethyl-N—((S)-1-oxo-3-((S)-2-oxopyrrolidin-3-yl)propan-2-yl)-3-azabicyclo[3.1.0]hexane-2-carboxamide] |  | 12.5 | 30.5 | 28.9 | 23.5 | 157 | 24.9 | 14.6 |  |  |  |  |  |  |
| O=C[C@H](C[C@@H]1CCNC1=O)NC(=O)[C@@H]1C[C@@H](C2CCCCC2)CN1C(=O)c1cc2ccccc2[nH]1 [Compound 61, (2S,4S)-4-Cyclohexyl-1-(1H-indole-2-carbonyl)-N—((S)-1-oxo-3-((S)-2-oxopyrrolidin-3-yl)propan-2-yl)pyrrolidine-2-carboxamide] | 26 | 12.6 | 38.7 | 200 | 147 | 438 | 43.2 |  |  |  |  |  |  |  |
| O=C[C@H](C[C@@H]1CCNC1=O)NC(=O)[C@@H]1CC2(CCC2)CN1C(=O)C1(c2ccccc2)CC1 [Compound 84, (S)—N—((S)-1-Oxo-3-((S)-2-oxopyrrolidin-3-yl)propan-2-yl)-6-(1-phenylcyclopropanecarbonyl)-6-azaspiro[3.4]octane-7-carboxamide] |  | 17.3 | 41.2 | 185 | 88.3 | 703 | 47.6 | 36 |  |  |  |  |  |  |
| O=C1NCC[C@H]1C[C@H](NC(=O)[C@@H]1CC2(CC2)CN1C(=O)c1cc2ccccc2[nH]1)C(=O)c1nc2ccccc2s1 [Compound 127, (S)—N—((S)-1-(benzo[d]thiazol-2-yl)-1-oxo-3-((S)-2-oxopyrrolidin-3-yl)propan-2-yl)-5-(1H-indole-2-carbonyl)-5-azaspiro[2.4]heptane-6-carboxamide] |  | 372 | 507 | 195 | 600 | 409 | 95.1 | 261 |  |  |  |  |  |  |
| O=C[C@H](C[C@@H]1CCNC1=O)NC(=O)[C@@H]1CC(F)(F)CN1C(=O)c1cc2ccccc2[nH]1 [Compound 115, (S)-4,4-difluoro-1-(1H-Indole-2-carbonyl)-N—((S)-1-oxo-3-((S)-2-oxopyrrolidin-3-yl)propan-2-yl)pyrrolidine-2-carboxamide] |  | 15 | 87 | 105 | 250 | 303 | 53 | 102 |  |  |  |  |  |  |
| C[C@H](C(=O)N1C[C@H]2[C@@H]([C@H]1C(=O)N[C@H](C=O)C[C@@H]1CCNC1=O)C2(C)C)C1CCCCC1 [Compound 92, (1R,2S,5S)-3-((S)-2-Cyclohexylpropanoyl)-6,6-dimethyl-N—((S)-1-oxo-3-((S)-2-oxopyrrolidin-3-yl)propan-2-yl)-3-azabicyclo[3.1.0]hexane-2-carboxamide] | 45 | 39.4 | 109 | 162 | 89.6 | 418 | 43.9 |  |  |  |  |  |  |  |
| CC1(C)[C@@H]2[C@@H](C(=O)N[C@H](C=O)C[C@@H]3CCNC3=O)N(C(=O)CC3CCCCC3)C[C@@H]21 [Compound 54, (1R,2S,5S)-3-(2-Cyclohexylacetyl)-6,6-dimethyl-N—((S)-1-oxo-3-((S)-2-oxopyrrolidin-3-yl)propan-2-yl)-3-azabicyclo[3.1.0]hexane-2-carboxamide] |  |  |  |  |  |  |  |  | 18.8 | 56.7 | 42.6 | 37.8 | 285 | 36.4 |
| CC(C)(C)[C@H](NC(=O)C(F)(F)F)C(=O)N1C[C@H]2[C@@H]([C@H]1C(=O)N[C@H](C=O)C[C@@H]1CCNC1=O)C2(C)C [Compound 12, (1R,2S,5S)-3-((S)-3,3-dimethyl-2-(2,2,2-trifluoroacetamido)butanoyl)-6,6-dimethyl-N—((S)-1-oxo-3-((S)-2-oxopyrrolidin-3-yl)propan-2-yl)-3-azabicyclo[3.1.0]hexane-2-carboxamide] |  | 15 | 37 | 53.9 | 21.2 | 175 | 33.8 |  |  |  |  |  |  |  |
| O=C[C@H](C[C@@H]1CCNC1=O)NC(=O)[C@@H]1[C@H]2CCC[C@H]2CN1C(=O)COc1ccc(Cl)cc1Cl [Compound 63, (1S,3aR,6aS)-2-(2-(2,4-Dichlorophenoxy)acetyl)-N—((S)-1-oxo-3-((S)-2-oxopyrrolidin-3-yl)propan-2-yl)octahydrocyclopenta[c]pyrrole-1-carboxamide] |  | 39.7 | 66.8 | 105 | 32.1 | 382 | 53.8 |  |  |  |  |  |  |  |
| CC(C)(C)NC(=O)N[C@H](C(=O)N1C[C@H]2[C@@H]([C@H]1C(=O)N[C@@H](C[C@@H]1CCNC1=O)C(=O)C(N)=O)C2(C)C)C(C)(C)C [Compound 50, (1R, 2S, 5S)—N—((S)-4-amino-3,4-dioxo-1-((S)-2-oxopyrrolidin-3-yl)butan-2-yl)-3-((S)-2-(3-(tert-butyl)ureido)-3,3-dimethylbutanoyl)-6,6-dimethyl-3-azabicyclo[3.1.0]hexane-2-carboxamide] |  | 34.2 | 171 | 256 | 46.9 | 621 | 130 |  |  |  |  |  |  |  |
